Laboratory results taken from ChEMBL document CHEMBL1201862, “PubChem BioAssay data set” (2004).
Where “and” joins values, the source holds several entries; their conditions need not be identical. Identical values can stand only once.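 1) Cells in 96-well plates. 2) Compound, 48 h, 5 concentrations. 3) Linear interpolation between surrounding doses. 4) Unreached endpoint = highest concentration. GI50: concentration for 50% inhibition of growth.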 Calls of active or inactive are those of the source. Rule as the data show it: active = GI50 up to about 1.1 µM and inactive = higher. *1 amine or outer side, *2 acyl side, *3 side chain or, on linkers, in order; H or OH if unused. Where a SMILES comes first, the peptide text is derived from it. Bridges are numbered along the chain shown (N, C = ends). Roman numbers before positions name the chains, in order. [ ]: non-standard residue; d: D form. Actinocin(1to9) = Cc1c2oc3c(C)ccc(C(=O)[*:2])c3nc-2c(C(=O)[*:1])c(N)c1=O; NMeY = CN[CH](Cc1ccc(O)cc1)C(=O)O; Sar = CNCC(=O)O

Experiments:
Assay in all cases: inhibition of tumour cell growth, NCI panel, 48 h
A498 = test system: A498
A549 = test system: A549
ACHN = test system: ACHN
BT-549 = test system: BT-549
DU-145 = test system: DU-145
HCC 2998 = test system: HCC 2998
HOP-62 = test system: HOP-62
KM12 = test system: KM12
MDA-MB-435 = test system: MDA-MB-435
MDA-N = test system: MDA-N
Malme-3M = test system: Malme-3M
NCI-H226 = test system: NCI-H226
NCI-H23 = test system: NCI-H23
OVCAR-3 = test system: OVCAR-3
OVCAR-4 = test system: OVCAR-4
OVCAR-8 = test system: OVCAR-8
PC-3 = test system: PC-3
RPMI-8226 = test system: RPMI-8226
SF-295 = test system: SF-295
SF-539 = test system: SF-539
SK-MEL-28 = test system: SK-MEL-28
SK-MEL-5 = test system: SK-MEL-5
SN12C = test system: SN12C
SNB-19 = test system: SNB-19
SNB-75 = test system: SNB-75
SW-620 = test system: SW-620
T47D = test system: T47D
UACC-257 = test system: UACC-257
UACC-62 = test system: UACC-62
786-0 = test system: 786-0
EKVX = test system: EKVX
HCT-116 = test system: HCT-116
HOP-92 = test system: HOP-92
Hs-578T = test system: Hs-578T
IGROV-1 = test system: IGROV-1
LOX IMVI = test system: LOX IMVI
M14 = test system: M14
MDA-MB-231 = test system: MDA-MB-231
NCI-H460 = test system: NCI-H460
NCI-H522 = test system: NCI-H522
NCI/ADR-RES = test system: NCI/ADR-RES
RXF 393 = test system: RXF 393
SF-268 = test system: SF-268
SK-MEL-2 = test system: SK-MEL-2
TK-10 = test system: TK-10
U-251 = test system: U-251
CAKI-1 = test system: CAKI-1
CCRF-CEM = test system: CCRF-CEM
COLO 205 = test system: COLO 205
HCT-15 = test system: HCT-15
HL-60 = test system: HL-60
HT-29 = test system: HT-29
K562 = test system: K562
MCF7 = test system: MCF7
MOLT-4 = test system: MOLT-4
OVCAR-5 = test system: OVCAR-5
SK-OV-3 = test system: SK-OV-3
SR = test system: SR
UO-31 = test system: UO-31

COc1ccc(CC2C(=O)OC(C)C(NC(=O)c3c4nc5c(C(=O)NC6C(=O)NC(C(C)C)C(=O)N7CCCC7C(=O)N(C)CC(=O)N(C)C(Cc7ccc(OC)cc7)C(=O)OC6C)ccc(C)c5oc-4c(C)c(=O)c3N)C(=O)NC(C(C)C)C(=O)N3CCCC3C(=O)N(C)CC(=O)N2C)cc1 (stereo not given) (I: TVP[Sar][NMeY](Me) / II: TVP[Sar][NMeY](Me); ester I:1-I:C, II:1-II:C; linker I:N-II:N via Actinocin(1to9); configuration not given here)
GI50 (A498): < 10 nM (active) and 14.9 nM (active) | GI50 (A549): 0.00527 µM (active) | GI50 (ACHN): 0.0102 µM (active) | GI50 (BT-549): 0.0208 µM (active) | GI50 (DU-145): 0.0121 µM (active) | GI50 (HCC 2998): < 10 nM (active) and 8.04 nM (active) | GI50 (HOP-62): 0.00953 µM (active) | GI50 (KM12): 0.00516 µM (active) | GI50 (MDA-MB-435): 0.00923 µM (active) | GI50 (MDA-N): 0.00811 µM (active) | GI50 (Malme-3M): < 10 nM (active) and 10.6 nM (active) | GI50 (NCI-H226): < 10 nM (active) and 14.9 nM (active) | GI50 (NCI-H23): 0.0104 µM (active) | GI50 (OVCAR-3): < 10 nM (active) and 9.44 nM (active) | GI50 (OVCAR-4): < 0.01 µM (active) | GI50 (OVCAR-8): 0.00859 µM (active) | GI50 (PC-3): < 10 nM (active) and 10 nM (active) | GI50 (RPMI-8226): 0.0121 µM (active) | GI50 (SF-295): 0.0199 µM (active) | GI50 (SF-539): < 10 nM (active) and 7.08 nM (active) | GI50 (SK-MEL-28): 0.00964 µM (active) | GI50 (SK-MEL-5): 0.0119 µM (active) | GI50 (SN12C): 0.0053 µM (active) | GI50 (SNB-19): 0.00637 µM (active) | GI50 (SNB-75): 0.00764 µM (active) | GI50 (SW-620): < 10 nM (active) and 13.6 nM (active) | GI50 (T47D): 0.0094 µM (active) | GI50 (UACC-257): 0.0155 µM (active) | GI50 (UACC-62): 0.0107 µM (active)

COc1ccc2[nH]c3c(O)c(-c4c(C)cc5c([nH]c6ccc(OC)cc65)c4O)c(C)cc3c2c1
GI50 (786-0): 4.91 µM (inactive) | GI50 (A549): 4.05 µM (inactive) | GI50 (ACHN): 4.66 µM (inactive) | GI50 (BT-549): 4.62 µM (inactive) | GI50 (DU-145): 4.43 µM (inactive) | GI50 (EKVX): 4.09 µM (inactive) | GI50 (HCC 2998): 3.7 µM (inactive) | GI50 (HCT-116): 4.22 µM (inactive) | GI50 (HOP-62): 4.83 µM (inactive) | GI50 (HOP-92): 4.51 µM (inactive) | GI50 (Hs-578T): 6.28 µM (inactive) | GI50 (IGROV-1): 4.34 µM (inactive) | GI50 (KM12): 4.24 µM (inactive) | GI50 (LOX IMVI): 4.38 µM (inactive) | GI50 (M14): 4.13 µM (inactive) | GI50 (MDA-MB-231): 5.74 µM (inactive) | GI50 (NCI-H226): 4.38 µM (inactive) | GI50 (NCI-H460): 3.98 µM (inactive) | GI50 (NCI-H522): 4.93 µM (inactive) | GI50 (NCI/ADR-RES): 4.24 µM (inactive) | GI50 (OVCAR-3): 4.35 µM (inactive) | GI50 (OVCAR-4): 3.88 µM (inactive) | GI50 (OVCAR-8): 4.5 µM (inactive) | GI50 (PC-3): 4.27 µM (inactive) | GI50 (RXF 393): 4.84 µM (inactive) | GI50 (SF-268): 4.48 µM (inactive) | GI50 (SF-539): 4.86 µM (inactive) | GI50 (SK-MEL-28): 5.55 µM (inactive) | GI50 (SK-MEL-2): 5.41 µM (inactive) | GI50 (SN12C): 4.43 µM (inactive) | GI50 (SNB-19): 4.69 µM (inactive) | GI50 (SNB-75): 3.85 µM (inactive) | GI50 (SW-620): 4.41 µM (inactive) | GI50 (T47D): 9.86 µM (inactive) | GI50 (TK-10): 4.45 µM (inactive) | GI50 (U-251): 4.31 µM (inactive) | GI50 (UACC-257): 4.24 µM (inactive)

Cc1c(N=C(S)Nc2ccc(Cl)cc2)c(=O)n(-c2ccccc2)n1C
GI50 (786-0): > 100 µM (inactive) | GI50 (A498): > 100 µM (inactive) | GI50 (A549): > 100 µM (inactive) | GI50 (ACHN): > 100 µM (inactive) | GI50 (BT-549): > 100 µM (inactive) | GI50 (CAKI-1): > 100 µM (inactive) | GI50 (CCRF-CEM): > 100 µM (inactive) | GI50 (COLO 205): > 100 µM (inactive) | GI50 (DU-145): > 100 µM (inactive) | GI50 (EKVX): > 100 µM (inactive) | GI50 (HCC 2998): > 100 µM (inactive) | GI50 (HCT-116): > 100 µM (inactive) | GI50 (HCT-15): > 100 µM | GI50 (HL-60): > 100 µM (inactive) | GI50 (HOP-62): > 100 µM (inactive) | GI50 (HOP-92): > 100 µM (inactive) | GI50 (HT-29): > 100 µM (inactive) | GI50 (Hs-578T): > 100 µM (inactive) | GI50 (IGROV-1): > 100 µM (inactive) | GI50 (K562): > 100 µM (inactive) | GI50 (KM12): > 100 µM (inactive) | GI50 (LOX IMVI): > 100 µM (inactive) | GI50 (M14): > 100 µM (inactive) | GI50 (MCF7): > 100 µM (inactive) | GI50 (MDA-MB-231): > 100 µM (inactive) | GI50 (MDA-MB-435): > 100 µM (inactive) | GI50 (MDA-N): > 100 µM (inactive) | GI50 (MOLT-4): > 100 µM (inactive) | GI50 (Malme-3M): > 100 µM (inactive) | GI50 (NCI-H226): > 100 µM (inactive) | GI50 (NCI-H23): > 100 µM (inactive) | GI50 (NCI-H460): > 100 µM (inactive) | GI50 (NCI-H522): > 100 µM (inactive) | GI50 (NCI/ADR-RES): > 100 µM (inactive) | GI50 (OVCAR-3): > 100 µM (inactive) | GI50 (OVCAR-5): > 100 µM (inactive) | GI50 (PC-3): > 100 µM (inactive) | GI50 (RPMI-8226): > 100 µM (inactive) | GI50 (RXF 393): > 100 µM (inactive) | GI50 (SF-268): > 100 µM (inactive) | GI50 (SF-295): > 100 µM (inactive) | GI50 (SF-539): > 100 µM (inactive) | GI50 (SK-MEL-28): > 100 µM (inactive) | GI50 (SK-MEL-5): > 100 µM (inactive) | GI50 (SK-OV-3): > 100 µM (inactive) | GI50 (SNB-19): > 100 µM (inactive) | GI50 (SNB-75): > 100 µM (inactive) | GI50 (SR): > 100 µM (inactive) | GI50 (SW-620): > 100 µM (inactive) | GI50 (TK-10): > 100 µM (inactive) | GI50 (U-251): > 100 µM (inactive) | GI50 (UACC-257): > 100 µM (inactive) | GI50 (UACC-62): > 100 µM (inactive) | GI50 (UO-31): > 100 µM (inactive)
